Results as given in PubChem BioAssay AID624285 (Broad Institute, 2012).
Activity calls are given as the source filed them.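 The calls were made as follows: active = signal-decreasing dose-response curve whose fitted half-maximal concentration is at or below twice the highest valid tested dose; inconclusive = flat fit at 30 to 70% signal loss, or poor fit; inactive = the rest.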

Test: cytotoxicity in mammalian cells, dose response, cytotoxicity control for PDI inhibitor project, cell-based, 24 h, luminescence, cherry-picked samples (AID 624285)
Settings: NIH3T3/HeLa viability, CellTiter-Glo ATP luminescence, 24 h; at 35 µM (top of the series)

| Structure (SMILES) | activity change, negative = cytotoxicity |
| --- | --- |
| CC1(C(=O)Nc2cccc3c2CCCC3)CCN1C(=O)c1cccc(F)c1 (centres undefined) | -14.8% (inactive) |
| CCCCn1c(SCC(=O)NC2CCS(=O)(=O)C2)nc2ccccc2c1=O (centres undefined) | -8.17% (inactive) |
| O=C1[C@@H]2C(Cc3ccc(O)cc3)NC3(C(=O)Nc4ccc(F)cc43)[C@@H]2C(=O)N1c1ccccc1 (some centres undefined) | -14% (inactive) |
| Cc1ccc2nc(N3CCN(Cc4nnnn4C4CCCC4)CC3)c(C#N)cc2c1 | -9.95% (inactive) |
| COc1ccc(OC)c(CN2CCN(Cc3cc(=O)oc4cc(O)ccc34)CC2)c1 | -20.6% (inactive) |
| Cc1ccc2nsnc2c1NC(=O)c1cccnc1Cl | -3.17% (inactive) |
| S=C(NCCN1CCOCC1)Nc1ccc(Br)cc1 | -9.3% (inactive) |
| Cc1ccc(-c2cc(C(=O)NNC(=O)c3csc(N4CCOCC4)n3)c3ccccc3n2)cc1 | -13.2% (inactive) |
| CC[C@]12c3[nH]c4cc(-c5ccco5)ccc4c3CCN1C(=O)[C@@H](CC(=O)NCCCOC)C[C@@H]2C(=O)N1CCN(C(=O)c2ccco2)CC1 | -9.72% (inactive) |
| COc1ccc(N(Cc2cc3cc(OC)ccc3[nH]c2=O)C(=O)C2CCCO2)cc1 (centres undefined) | -10.5% (inactive) |
| O=C1CC(C(=O)N2CCc3ccccc32)CN1c1ccc(F)cc1 (centres undefined) | -10.7% (inactive) |
| C[C@H](CO)N1C[C@H](C)[C@H](CN(C)Cc2ccc(Oc3ccccc3)cc2)Oc2c(NS(C)(=O)=O)cccc2C1=O | -6.82% (inactive) |
| O=C1NC(Cc2ccc(O)cc2)c2nc3cc(Cl)ccc3c(=O)n2-c2ncccc21 (centres undefined) | -16.3% (inactive) |
| Cc1c(O)ccc2c(CN3CCN(Cc4ccccc4)CC3)cc(=O)oc12 | -14.2% (inactive) |
| CC(C)c1ccc(Nc2nc(CC(=O)O)cs2)cc1 | -4.01% (inactive) |
| Cc1noc(C)c1S(=O)(=O)Nc1ccc2c(c1)CC(=O)N([C@@H](C)CO)C[C@@H](C)[C@H](CN(C)S(=O)(=O)c1ccc(F)cc1)O2 | -10.5% (inactive) |
| O=C(NCc1ccccc1)c1cc(C2CCCN(C(=O)C3CCCCC3)C2)on1 (centres undefined) | -16.2% (inactive) |
| CC1(C(=O)Nc2ccc3c(c2)OCCO3)CCN1C(=O)C1(c2ccc(Cl)cc2)CC1 (centres undefined) | -11.6% (inactive) |
| O=C1C[C@H](c2ccc(O)cc2)Oc2cc(O[C@@H]3O[C@H](CO)[C@@H](O)[C@H](O)[C@H]3O)cc(O[C@@H]3O[C@H](CO)[C@@H](O)[C@H](O)[C@H]3O)c21 | -8.86% (inactive) |
| C[C@H](CO)N1C[C@H](C)[C@H](CN(C)Cc2ccccc2)Oc2ccc(NC(=O)Nc3ccccc3)cc2CC1=O | -11.2% (inactive) |
| COc1cccc(/C=C2\CCCCC2=O)c1 | -7.65% (inactive) |
| Cc1ccc(CN(c2ccc(C(=O)Nc3ccc4c(c3)OCO4)cc2)S(C)(=O)=O)cc1 | -9.66% (inactive) |
| O=C(CN(CCc1ccccc1)C(=O)CNS(=O)(=O)c1ccccc1)NCC1CCCO1 (centres undefined) | -1.76% (inactive) |
| O=S(=O)(c1cc(F)ccc1F)N1CCN(c2ncccn2)CC1 | -15.2% (inactive) |
| COc1ccccc1N1CCN(C(=O)C(=O)N/N=C/c2cccc(O)c2)CC1 | -8.29% (inactive) |
| Cc1c(-n2cc(C(=O)c3ccccc3O)cc(C#N)c2=O)c(=O)n(-c2ccccc2)n1C | -5.22% (inactive) |
| CN1CCN(C(=O)CSc2nnc(COc3ccc(Cl)cc3)o2)CC1 | -3.96% (inactive) |

| Structure (SMILES) | activity change, negative = cytotoxicity |
| --- | --- |
| CCOC(=O)c1c(CN(CC)CC)n(C)c2cc(Br)c(O)cc12 | -10.4% (inactive) |
| COCc1[nH][nH]c(=O)c1C=Nc1ccc(F)cc1F | -11.4% (inactive) |
| S=C(NCCc1ccccc1)Nc1ccccn1 | -3.47% (inactive) |
| CCCCNC(=O)N1CCN(C(=O)C2CCCO2)CC1 (centres undefined) | -4.25% (inactive) |
| COc1cccc(NS(=O)(=O)c2ccc3c(c2)C2C=CCC2C(c2ccc(C(=O)O)cc2)N3)c1 (centres undefined) | -7.82% (inactive) |
| COc1cc2c(cc1OC)C1C(C(=O)Nc3ccccc3N3CCN(C)CC3)c3ccccc3C(=O)N1CC2 (centres undefined) | -11.8% (inactive) |
| Cc1noc(C)c1C(=O)OCC(=O)NCCc1ccc(Cl)cc1 | -14.2% (inactive) |
| O=C1/C(=C\c2ccc(O)cc2)CCC1CNc1ccc(Cl)cc1 (centres undefined) | -7.39% (inactive) |
| C[C@H](CO)N1C[C@H](C)[C@H](CN(C)S(=O)(=O)c2ccc(F)cc2)Oc2ccc(NC(=O)Cc3cn(C)c4ccccc34)cc2C1=O | -6.42% (inactive) |
| COC(=O)c1cccc(CSc2nnc(C)s2)c1 | -12.9% (inactive) |
| COc1ccc(CCNC(=O)c2cc(S(=O)(=O)N(C)C)ccc2N2CCCC2)cc1 | -14.6% (inactive) |
| COc1ccc(C2C(C(C)=O)=C(O)C(=O)N2CCc2c[nH]c3ccccc23)cc1OC (centres undefined) | -3.29% (inactive) |
| C[C@@H]1CN([C@@H](C)CO)C(=O)c2cccc(NS(C)(=O)=O)c2O[C@@H]1CN(C)Cc1ccc(Oc2ccccc2)cc1 | -5.95% (inactive) |
| CC(=O)OCC(=O)NCc1ccc2c(c1)OCO2 | -5.14% (inactive) |
| COCC(=O)N(C)C1(c2nnnn2CCOC(=O)Nc2ccc(Cl)cc2)CCCCC1 | -4.92% (inactive) |
| Clc1cccc(OCCCN2CCCC2)c1Cl | -17% (inactive) |
| C[C@@H]1O[C@@H](OC[C@@H]2O[C@H](Oc3c(-c4ccc(O)cc4)oc4cc(O)cc(O)c4c3=O)[C@@H](O)[C@H](O)[C@H]2O)[C@H](O)[C@H](O)[C@H]1O | 0.405% (inactive) |
| CC(C)CCOc1ccc(C2(C)NC(=O)N(CN3CCOCC3)C2=O)cc1 (centres undefined) | -15.3% (inactive) |
| CCS(=O)(=O)c1ccc2oc(SCC(=O)NC(C)C3CC4CCC3C4)nc2c1 (centres undefined) | -13.9% (inactive) |
| Cc1noc(C)c1S(=O)(=O)Nc1ccc2c(c1)CC(=O)N([C@@H](C)CO)C[C@H](C)[C@@H](CN(C)S(=O)(=O)c1ccc(F)cc1)O2 | 2.55% (inactive) |
| OCCC1CN(Cc2cccn2-c2ccccn2)CCN1C1CCCCC1 (centres undefined) | -20.5% (inactive) |
| O=C(Cn1nnc2ccccc21)OCC(=O)c1ccccc1 | -11.3% (inactive) |
| COc1ccc(Cl)cc1NC(=O)COC(=O)C1CC1 | -9.32% (inactive) |
| CCN1C(=O)C2C(c3ccccc3F)NC(Cc3ccc(O)cc3)(C(=O)OC)C2C1=O (centres undefined) | -13.9% (inactive) |
| CCOC(=O)c1c(CN2CCN(Cc3ccccc3)CC2)n(C)c2cc(Br)c(OC)cc12 | -17.4% (inactive) |
| CC(=O)Nc1cccc(NC(=O)CCc2ccccc2)c1 | -12% (inactive) |
| Cc1cc(C)c2c(=O)n3c(nc2c1)C(Cc1ccc(O)cc1)NC(=O)c1cccnc1-3 (centres undefined) | -10.3% (inactive) |

| Structure (SMILES) | activity change, negative = cytotoxicity |
| --- | --- |
| O=C(NCc1cccs1)C1CC(c2ccc(F)cc2)=NO1 (centres undefined) | -16.4% (inactive) |
| CN(C)C(=O)CSc1n[nH]c(-c2ccco2)n1 | -5.07% (inactive) |
| CC(=O)N(C)C1(c2nnnn2CCOC(=O)Nc2ccc(Cl)cc2)CCCCC1 | -9.52% (inactive) |
| O=C(c1ccco1)N1CCN(Cc2cc(=O)oc3cc(O)ccc23)CC1 | -18% (inactive) |
| O=C(Nc1oc2ccccc2c(=O)c1-c1ccc(Cl)cc1)c1ccco1 | -2.88% (inactive) |
| O=C(N/N=C/c1ccc(O)cc1)NC12CC3CC(CC(C3)C1)C2 | -14.1% (inactive) |
| Cc1nn(CC(=O)NCC2CCCO2)c(C)c1[N+](=O)[O-] (centres undefined) | -7.91% (inactive) |
| COc1ccc(C(=O)Nc2ccccc2C(=O)NCc2ccco2)cc1 | -14.7% (inactive) |
| C[C@H]1CN([C@@H](C)CO)C(=O)c2cc(NC(=O)Cc3cn(C)c4ccccc34)ccc2O[C@H]1CN(C)S(=O)(=O)c1ccc(F)cc1 | -5.48% (inactive) |
| CC(=O)N1CCC(C(=O)NCCOc2cccc(C)c2)CC1 | -15.7% (inactive) |
| COC(=O)CC1OCC=C2CN3CCC45C6=CC(=O)C(=O)C([N+](=O)[O-])=C6NC4C1C2CC35 (centres undefined) | -13% (inactive) |
| Cc1ccc(SCC(=O)c2sc(-c3ccccc3)nc2C)cc1 | -11.9% (inactive) |
| CCCn1nnnc1NC(=O)c1cccs1 | -5.77% (inactive) |
| O=C(Cc1ccccc1)Nc1cccc(C(=O)N/N=C/c2ccco2)c1 | -4.58% (inactive) |
| Cc1cc(C)cc(OCC(=O)Nc2ccccc2C(=O)N2CCOCC2)c1 | -11.8% (inactive) |
| Cc1ccc(C)c(NS(=O)(=O)c2c(C)nn(C)c2C)c1 | -1.82% (inactive) |
| CN(C)c1ccc(C2(O)C(=O)c3ccccc3C2=O)cc1 | -6.27% (inactive) |
| COc1ccc(S(=O)(=O)NCC(c2ccc(F)cc2)N2CCOCC2)cc1Br (centres undefined) | -10.1% (inactive) |
| COc1ccc(C2c3ccc(O)cc3Oc3ncn(Cc4ccco4)c(=N)c32)cc1OC (centres undefined) | -14.4% (inactive) |
| COc1ccc(CNC(=O)c2ccc(CS(=O)Cc3cccc(Cl)c3)o2)cc1 (centres undefined) | -9.18% (inactive) |
| O=C(Nc1ccccc1)c1cc(C2CCCCN2C(=O)c2ccccc2)on1 (centres undefined) | -15.5% (inactive) |
| O=C1NC(Cc2ccc(O)cc2)c2nc3ccccc3c(=O)n2-c2ncccc21 (centres undefined) | -7.17% (inactive) |
| C[C@@H](CN1C2=NC[C@H](Cc3ccc(O)cc3)N2C[C@H]1Cc1ccc(O)cc1)NC(=O)CCC1CCCCC1 | -8.59% (inactive) |
| CCOC(=O)c1c(-c2ccccc2)oc2cc(Br)c(O)cc12 | -20.5% (inactive) |
| COCC(=O)NC1(c2nnnn2CCOC(=O)Nc2ccc(Cl)cc2)CCCCC1 | -7.94% (inactive) |
